Measured values from the Kinase Knowledgebase extract (Sharma et al. 2016).

Tests used:
PIK3CA (human) [1] = molecular target: PIK3CA (human) (UniProt P42336); assay: Cell-Based Assay
PIK3CA (human) [2] = molecular target: PIK3CA (human) (UniProt P42336); assay: Enzyme Assay
PIK3CB (Human) = PIK3CB (Human) (UniProt P42338); assay: Enzyme Assay
PIK3CD (Human) = PIK3CD (Human) (UniProt O00329); assay: Enzyme Assay
PIK3CG (human) = PIK3CG (human) (UniProt P48736); assay: Enzyme Assay
PIK3CG (human), sequence (P48736 whole entry, looked up): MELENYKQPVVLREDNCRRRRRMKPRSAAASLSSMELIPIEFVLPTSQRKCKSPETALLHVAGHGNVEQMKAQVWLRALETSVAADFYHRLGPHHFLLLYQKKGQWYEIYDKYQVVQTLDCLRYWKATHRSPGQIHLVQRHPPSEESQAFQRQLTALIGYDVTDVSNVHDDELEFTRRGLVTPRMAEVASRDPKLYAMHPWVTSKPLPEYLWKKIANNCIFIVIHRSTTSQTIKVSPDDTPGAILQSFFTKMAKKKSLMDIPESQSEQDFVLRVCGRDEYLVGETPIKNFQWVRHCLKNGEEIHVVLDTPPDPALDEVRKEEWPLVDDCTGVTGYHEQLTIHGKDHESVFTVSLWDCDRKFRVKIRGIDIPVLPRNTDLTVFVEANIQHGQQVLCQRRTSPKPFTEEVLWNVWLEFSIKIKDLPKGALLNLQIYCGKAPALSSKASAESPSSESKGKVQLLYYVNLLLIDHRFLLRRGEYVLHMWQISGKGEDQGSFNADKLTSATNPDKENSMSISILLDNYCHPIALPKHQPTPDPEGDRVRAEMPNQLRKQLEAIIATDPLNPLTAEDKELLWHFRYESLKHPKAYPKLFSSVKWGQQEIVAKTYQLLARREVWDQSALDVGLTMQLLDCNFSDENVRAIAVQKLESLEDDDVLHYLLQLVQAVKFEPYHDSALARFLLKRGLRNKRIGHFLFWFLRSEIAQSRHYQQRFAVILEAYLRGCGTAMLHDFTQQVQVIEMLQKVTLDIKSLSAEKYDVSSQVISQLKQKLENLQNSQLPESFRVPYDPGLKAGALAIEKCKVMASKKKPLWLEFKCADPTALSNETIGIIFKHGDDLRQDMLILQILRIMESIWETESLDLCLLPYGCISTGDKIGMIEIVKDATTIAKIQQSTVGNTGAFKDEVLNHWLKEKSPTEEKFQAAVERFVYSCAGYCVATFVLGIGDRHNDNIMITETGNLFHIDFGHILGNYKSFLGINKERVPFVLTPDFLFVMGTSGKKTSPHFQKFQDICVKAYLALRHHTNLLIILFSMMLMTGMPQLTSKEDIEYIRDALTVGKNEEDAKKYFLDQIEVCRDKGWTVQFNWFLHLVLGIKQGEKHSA

PIK3CB (Human), sequence (P42338 whole entry, looked up): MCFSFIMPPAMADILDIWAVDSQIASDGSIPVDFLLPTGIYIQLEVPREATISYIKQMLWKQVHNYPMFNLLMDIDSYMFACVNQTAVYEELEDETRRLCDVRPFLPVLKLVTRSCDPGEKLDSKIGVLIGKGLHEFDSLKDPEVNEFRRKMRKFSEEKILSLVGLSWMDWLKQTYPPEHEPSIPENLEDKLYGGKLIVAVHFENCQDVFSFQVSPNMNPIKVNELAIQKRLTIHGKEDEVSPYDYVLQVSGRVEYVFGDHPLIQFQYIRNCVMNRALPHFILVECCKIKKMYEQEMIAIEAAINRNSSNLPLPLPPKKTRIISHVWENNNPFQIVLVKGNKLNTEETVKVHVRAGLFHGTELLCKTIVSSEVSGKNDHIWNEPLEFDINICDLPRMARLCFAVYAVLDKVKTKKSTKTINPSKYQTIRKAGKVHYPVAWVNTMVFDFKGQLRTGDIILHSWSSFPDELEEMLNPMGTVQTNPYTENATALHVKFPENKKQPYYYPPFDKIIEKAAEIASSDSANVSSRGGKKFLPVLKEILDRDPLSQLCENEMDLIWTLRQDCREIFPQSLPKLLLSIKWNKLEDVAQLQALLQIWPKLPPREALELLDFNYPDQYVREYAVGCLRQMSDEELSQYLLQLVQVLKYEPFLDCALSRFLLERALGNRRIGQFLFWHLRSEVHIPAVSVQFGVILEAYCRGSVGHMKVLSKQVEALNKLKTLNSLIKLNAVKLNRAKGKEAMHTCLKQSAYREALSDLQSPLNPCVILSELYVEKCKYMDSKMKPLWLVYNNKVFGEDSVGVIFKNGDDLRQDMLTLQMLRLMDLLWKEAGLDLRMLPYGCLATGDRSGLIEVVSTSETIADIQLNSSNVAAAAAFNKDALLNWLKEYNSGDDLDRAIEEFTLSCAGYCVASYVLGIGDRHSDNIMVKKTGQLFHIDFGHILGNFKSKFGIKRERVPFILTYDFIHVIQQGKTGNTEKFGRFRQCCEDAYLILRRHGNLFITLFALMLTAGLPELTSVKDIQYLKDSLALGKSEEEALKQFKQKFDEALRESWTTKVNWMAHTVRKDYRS
PIK3CA (human), sequence (P42336 whole entry, looked up): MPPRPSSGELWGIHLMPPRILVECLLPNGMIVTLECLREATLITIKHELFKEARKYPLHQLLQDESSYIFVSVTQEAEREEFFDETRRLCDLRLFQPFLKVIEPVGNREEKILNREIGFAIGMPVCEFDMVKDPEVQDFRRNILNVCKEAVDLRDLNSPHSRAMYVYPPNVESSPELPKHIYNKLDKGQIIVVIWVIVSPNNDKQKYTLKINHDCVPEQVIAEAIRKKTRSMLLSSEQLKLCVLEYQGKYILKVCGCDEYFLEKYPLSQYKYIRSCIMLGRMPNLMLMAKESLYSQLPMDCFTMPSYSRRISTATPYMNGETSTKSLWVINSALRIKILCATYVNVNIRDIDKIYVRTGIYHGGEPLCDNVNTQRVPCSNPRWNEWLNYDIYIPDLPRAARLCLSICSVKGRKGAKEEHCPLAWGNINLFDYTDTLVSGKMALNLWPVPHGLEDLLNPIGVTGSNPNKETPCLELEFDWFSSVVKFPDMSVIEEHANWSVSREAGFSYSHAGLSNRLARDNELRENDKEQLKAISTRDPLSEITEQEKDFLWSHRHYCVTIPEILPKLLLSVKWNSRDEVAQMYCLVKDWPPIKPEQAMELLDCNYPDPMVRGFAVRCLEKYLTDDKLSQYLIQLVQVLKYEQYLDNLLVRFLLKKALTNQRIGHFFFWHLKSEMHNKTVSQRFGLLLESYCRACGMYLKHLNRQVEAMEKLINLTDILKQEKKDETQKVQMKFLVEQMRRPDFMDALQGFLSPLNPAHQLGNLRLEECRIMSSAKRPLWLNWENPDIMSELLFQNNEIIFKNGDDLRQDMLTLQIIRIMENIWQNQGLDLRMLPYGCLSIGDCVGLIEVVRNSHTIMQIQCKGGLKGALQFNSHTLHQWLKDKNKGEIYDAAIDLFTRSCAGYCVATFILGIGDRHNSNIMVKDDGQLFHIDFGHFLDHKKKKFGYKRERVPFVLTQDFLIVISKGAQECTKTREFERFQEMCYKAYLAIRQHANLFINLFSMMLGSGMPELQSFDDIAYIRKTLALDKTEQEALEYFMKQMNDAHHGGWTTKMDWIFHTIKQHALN
PIK3CD (Human), sequence (O00329 whole entry, looked up): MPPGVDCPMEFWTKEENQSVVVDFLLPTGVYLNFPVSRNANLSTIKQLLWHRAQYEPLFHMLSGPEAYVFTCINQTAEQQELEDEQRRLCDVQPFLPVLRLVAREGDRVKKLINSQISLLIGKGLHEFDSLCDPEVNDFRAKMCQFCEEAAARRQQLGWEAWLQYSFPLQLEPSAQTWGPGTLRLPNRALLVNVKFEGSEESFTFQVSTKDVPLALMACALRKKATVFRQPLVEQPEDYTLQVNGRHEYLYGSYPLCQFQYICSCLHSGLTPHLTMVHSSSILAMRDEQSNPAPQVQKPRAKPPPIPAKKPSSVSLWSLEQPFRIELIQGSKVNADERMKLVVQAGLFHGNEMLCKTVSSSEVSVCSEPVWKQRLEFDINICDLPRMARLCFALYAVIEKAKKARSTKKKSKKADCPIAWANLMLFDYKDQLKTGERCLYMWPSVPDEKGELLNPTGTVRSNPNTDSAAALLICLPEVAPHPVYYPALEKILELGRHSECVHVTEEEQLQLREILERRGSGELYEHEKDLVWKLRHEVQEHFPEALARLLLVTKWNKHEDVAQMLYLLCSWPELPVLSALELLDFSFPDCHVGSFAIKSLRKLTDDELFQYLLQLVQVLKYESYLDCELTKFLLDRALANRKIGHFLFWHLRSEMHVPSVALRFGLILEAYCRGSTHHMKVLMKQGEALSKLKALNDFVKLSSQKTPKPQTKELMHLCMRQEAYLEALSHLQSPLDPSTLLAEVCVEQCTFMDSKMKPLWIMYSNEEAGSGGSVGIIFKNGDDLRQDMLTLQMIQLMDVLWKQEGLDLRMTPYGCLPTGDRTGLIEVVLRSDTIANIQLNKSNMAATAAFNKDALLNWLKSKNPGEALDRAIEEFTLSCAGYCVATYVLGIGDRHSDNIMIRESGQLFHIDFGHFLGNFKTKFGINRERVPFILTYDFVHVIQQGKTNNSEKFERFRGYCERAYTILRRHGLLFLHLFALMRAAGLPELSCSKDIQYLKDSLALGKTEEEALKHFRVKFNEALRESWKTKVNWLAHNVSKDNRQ

| IC50 (PIK3CA (human) [1]; pc3) [nM] | IC50 (PIK3CA (human) [2]) [nM] | IC50 (PIK3CB (Human)) [nM] | IC50 (PIK3CD (Human)) [nM] | IC50 (PIK3CG (human)) [nM] | IC50 (PIK3CA (human) [1]; t47d) [nM] | Structure (SMILES) |
| --- | --- | --- | --- | --- | --- | --- |
| < 100 | < 100 | < 100 | < 100 | < 100 |  | Nc1nc2ccc(-c3ccc4nccc(-c5ccncc5)c4c3)cc2o1 |
|  | > 10000 | > 10000 | > 10000 | > 10000 |  | CNc1nsc2cc(-c3ccc4ncc(C(=O)N5CCOCC5)n4c3)ccc12 |
|  | < 100 | 100 to 1000 | < 100 | < 100 | 100 to 1000 | CC(=O)Nc1nc2ccc(-c3ccc4oc(N)nc4c3)cc2s1 |
|  | 100 to 1000 | > 10000 | > 10000 | > 10000 |  | CN1CCN(n2cnc3ccc(-c4ccc5oc(N)nc5c4)cc3c2=O)CC1 |
|  | < 100 | 100 to 1000 | 100 to 1000 | 100 to 1000 | 100 to 1000 | CN(C)CC(=O)N1CCN(c2cnc3ccc(-c4ccc5oc(N)nc5c4)cc3n2)CC1 |
|  | < 100 | < 100 | > 10000 | < 100 | 100 to 1000 | NC(=O)[C@H]1CCCN1c1cnc2ccc(-c3ccc4oc(N)nc4c3)cc2n1 |
|  | < 100 | 100 to 1000 | 100 to 1000 | 100 to 1000 |  | Nc1nc2cc(-c3ccc4ncc(NCCN5CCOCC5)nc4c3)ccc2o1 |
